In US4663326A, “Pyrazolo[4,3-d]pyrimidine-5,7-(4H,6H)dione or -5-thione-7-one analogs” (Warner-Lambert Company, priority 1985, dated 1987):
Several values for one entry are separate records, joined by “and”; a condition that tells them apart may be missing. Identical values can stand only once.

Key:
Type 3 Phosphodiesterase = assay: PDE inhibition, Type 3 phosphodiesterase, cardiac muscle; format: biochemical; conditions: 1 × 10^-4 M
Description: (§1) Phosphodiesterase activity was measured as described previously (Weishaar, P. E., Quade, M., Boyd, D., Schenden, J., Mark, S. S., Kaplan, H. R., Drug Devel. Res., 3:517-534, 1983), in a reaction medium containing 40 mM Tris-HCl (pH 8.0), 5 mM MgCl and 4 mM 2-mercaptoethanol. Unless otherwise noted, the concentration of substrate (^3 H-cyclic AMP or ^3 H-cyclic GMP) was 1.0 μM. All agents examined were dissolved in dimethyl sulfoxide (DMSO). Final concentration of the reaction medium was either 2.5% (cardiac and platelet studies) or 1.25% (smooth muscle studies). This concentration of DMSO produced an approximately 10% inhibition of enzyme activity. […] Three to four such concentration-response curves were generated for each agent, generally using different enzyme preparations for each concentration-response.

[1] = molecular target: T1, adenosine receptors (designated A1) (Rattus norvegicus, UniProt P25099); assay: Adenosine receptor binding - A1 receptor affinity (RBA1), [3H]-CHA displacement, rat whole brain minus cerebellum and brainstem membranes; set-up: species or system rat (male Long Evans); conditions: 1.0 nM [3H]-CHA, 25° C., pH 7.7; repeat tests (Test 1-4) one line each; read-out: RBA-1 (IC50, adenosine A1 affinity)
T1 construct: Whole brain minus cerebellum and brainstem from male Long Evans rats (150-200 g); from tissue; host or cells: whole brain minus cerebellum and brainstem, male Long Evans rats, membranes
T1 sequence (P25099 1-326): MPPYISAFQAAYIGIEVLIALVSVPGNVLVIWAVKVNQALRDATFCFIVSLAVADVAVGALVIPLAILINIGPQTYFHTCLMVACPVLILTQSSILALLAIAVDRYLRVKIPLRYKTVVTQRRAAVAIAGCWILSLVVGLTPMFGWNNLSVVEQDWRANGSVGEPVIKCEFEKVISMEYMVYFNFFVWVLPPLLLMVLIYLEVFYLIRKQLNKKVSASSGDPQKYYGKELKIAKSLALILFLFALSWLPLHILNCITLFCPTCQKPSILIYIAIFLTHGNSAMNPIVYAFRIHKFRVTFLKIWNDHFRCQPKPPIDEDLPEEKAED
Description: ADENOSINE RECEPTOR BINDING-A1 RECEPTOR AFFINITY (RBA1)
Whole brain minus cerebellum and brainstem from male Long Evans rats (150-200 g) was homogenized in 30 volumes of ice-cold 0.05M Tris-HCl buffer pH 7.7 using a Brinkman Polytron PT-10, (setting number 6 for 20 seconds) and centrifuged for ten minutes at 20,000×g (Sorvall RC-2), 4° C. The supernatant was discarded, and the pellet was resuspended and centrifuged as before. The pellet was resuspended in 20 ml Tris-HCl buffer containing two International Units/ml of adenosine deaminase (Sigma type III from calf intestinal mucosa), incubated at 37° C. for 30 minutes, then subsequently at 0° C. for ten minutes. The homogenate was again centrifuged, and the final pellet was resuspended in ice-cold 0.05M Tris-HCl buffer pH 7.7 to a concentration of 20 mg/ml original wet tissue weight and used immediately.
Tissue homogenate (10 mg/ml) was incubated in 0.05M Tris-HCl buffer pH 7.7 containing 1.0 nM [^3 H]-N^6 -cyclohexyladenosine (^3 H]-CHA) with or without test agents in triplicate for one hour at 25° C. Incubation volume was 2 ml. Unbound [^3 H]-CHA was separated by rapid filtration under reduced pressure through Whatman glass fiber (GF/B) filters. The filters were rinsed three times with 5 ml of ice cold 0.05M Tris-HCl buffer pH 7.7. The radio-labeled ligand retained on the filter was measured by liquid scintillation spectrophotometry after shaking the filters for one hour or longer on a mechanical shaker in 10 ml of Beckman Ready-Solv HP scintillation cocktail.
Nonspecific binding was defined as the binding which occurred in the presence of 1 mM theophylline. The concentration of test agent which inhibited 50% of the specific binding (IC50) was determined by nonlinear computer curve fit. The Scatchard plot was calculated by linear regression of the line obtained by plotting the amount of radioligand bound ([…]) versus [bound radioligand/free radioligand].Since the amount of radioligand bound was a small fraction of the total amount added, free radioligand was defined as the concentration (nM) of radioligand added to the incubation mixture. The Hill coefficient was calculated by linear regression of the line obtained by plotting the log of the bound radioligand vs the log of the [bound radioligand/(Bmax -bound radioligand)]. The maximal number of binding sites (Bmax) was calculated from the Scatchard plot.

Type 1 Phosphodiesterase = assay: PDE inhibition, Type 1 phosphodiesterase, cardiac muscle; format: biochemical; conditions: 1 × 10^-4 M
Description: as §1

histamine = assay: Bronchodilator test (BCA), histamine spasmogen, guinea pigs; format: in vivo, Hartley Guinea Pigs; set-up: key: Active; conditions: 50 mg/kg
Text: The compounds of this invention may be determined to have antiallergy activity by a standard laboratory means employing the bronchodilator test (BCA) readily accepted as a standard for antiallergy activity, which is described in Siegmund, H. O., et al (J. Pharmacol. and Exptl., 90:254, 1949 and Herxheimer, H., J. Physiol., 117: 252-255, 1952). Thus, antiallergy activity was found for compounds of this invention by this BCA test using Hartley Guinea Pigs by the procedures as described below.
Naive (BCA) pigs are exposed to spasmogen for ten minutes by means of a De Vilbiss number 40 nebulizer positioned at the back of a closed, six unit plexiglas chamger (19×12.5×9"). Air flow is adjusted to give a pressure of 10 lbs/in; six animals per treatment are averaged, and the mean value for compound treated animals is compared to that for animals treated with vehicle. […]
The spasmogen may be acetylcholine chloride (0.3%), histamine (0.1%), methacholine chloride (Mecholyl) (0.1%) or serotonin creatinine sulfate. Each nebulizer dispenses 0.2 cc/minute.

Type 2 Phosphodiesterase = molecular target: T2, Type 2 Phosphodiesterase (Cavia porcellus, UniProt A0A286XUV5); assay: PDE inhibition, Type 2 phosphodiesterase, cardiac muscle; format: biochemical; set-up: inhibition: dose or concentration left out as unconfirmed; conditions: for inhibition at 100 µM: 1 × 10^-4 M, read-out: % Inhibition of 3H-cGMP Hydrolysis, Type 2 Phosphodiesterase; for inhibition: read-out: % Inhibition of 3H-cAMP Hydrolysis, Type 2 Phosphodiesterase
T2 construct: from tissue
T2 sequence (A0A286XUV5 22-936): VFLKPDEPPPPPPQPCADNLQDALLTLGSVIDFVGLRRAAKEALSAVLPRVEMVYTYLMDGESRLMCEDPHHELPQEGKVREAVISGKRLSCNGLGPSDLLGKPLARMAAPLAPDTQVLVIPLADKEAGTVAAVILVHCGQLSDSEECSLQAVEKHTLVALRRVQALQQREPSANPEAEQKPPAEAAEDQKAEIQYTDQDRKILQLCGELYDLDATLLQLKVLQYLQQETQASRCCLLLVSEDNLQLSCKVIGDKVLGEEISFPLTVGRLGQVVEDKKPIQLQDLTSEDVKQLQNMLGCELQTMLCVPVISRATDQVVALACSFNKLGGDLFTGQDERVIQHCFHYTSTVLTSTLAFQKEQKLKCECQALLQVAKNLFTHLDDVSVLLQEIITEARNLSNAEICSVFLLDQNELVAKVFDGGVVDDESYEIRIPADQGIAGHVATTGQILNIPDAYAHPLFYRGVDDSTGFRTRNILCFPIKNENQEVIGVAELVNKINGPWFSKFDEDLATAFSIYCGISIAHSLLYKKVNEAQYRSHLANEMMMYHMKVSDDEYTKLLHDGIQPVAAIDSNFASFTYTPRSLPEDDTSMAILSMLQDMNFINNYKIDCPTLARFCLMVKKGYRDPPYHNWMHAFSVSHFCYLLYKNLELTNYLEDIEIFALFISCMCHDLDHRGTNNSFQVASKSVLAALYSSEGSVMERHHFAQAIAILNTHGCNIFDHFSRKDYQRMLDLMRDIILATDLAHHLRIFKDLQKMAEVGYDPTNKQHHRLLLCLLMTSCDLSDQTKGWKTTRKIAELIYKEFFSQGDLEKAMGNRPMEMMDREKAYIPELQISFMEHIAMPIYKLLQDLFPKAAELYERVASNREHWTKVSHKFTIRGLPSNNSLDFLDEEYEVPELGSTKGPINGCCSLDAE
Description: as §1

SMILES | % Inhibition of 3H-cAMP Hydrolysis, Type 3 Phosphodiesterase (Type 3 Phosphodiesterase) | IC50 [1] | % Inhibition of 3H-cAMP Hydrolysis, Type 1 Phosphodiesterase (Type 1 Phosphodiesterase) | % Inhibition of 3H-cGMP Hydrolysis, Type 1 Phosphodiesterase (Type 1 Phosphodiesterase) | BCA Results, Ratings (histamine) | inhibition at 100 µM (Type 2 Phosphodiesterase) [%] | inhibition (Type 2 Phosphodiesterase) [%]
CCn1nc(C)c2[nH]c(=O)[nH]c(=O)c21 [Example 3, 1-Ethyl-3-methyl-1H-pyrazolo[4,3-d]pyrimidine-5,7(4H,6H)dione] | A (56-100% inhibition at 1 × 10^-5 M) | 5880 nM | B (36-55% inhibition at 1 × 10^-5 M) | B (36-55% inhibition at 1 × 10^-5 M) | A | 36 to 55 | 36 to 55
CCn1c(=O)[nH]c2c(C)nn(CC)c2c1=O [Example 4, 1-Ethyl-3-methyl-6ethyl-1H-pyrazolo[4,3-d]pyrimidine-5,7-[4H,6H]dione] | A (56-100% inhibition at 1 × 10^-5 M) | 1040 nM and 1520 nM | A (56-100% inhibition at 1 × 10^-5 M) | A (56-100% inhibition at 1 × 10^-5 M) | A | 56 to 100 | 56 to 100
CCCn1c(=O)[nH]c2c(C)nn(CC)c2c1=O [Example 5, 1H-1-Ethyl-3-methyl-6-propyl-pyrazolo[4,3-d]pyrimidine-5,7-[4H,6H]dione] | B (36-55% inhibition at 1 × 10^-5 M) | 458 nM and 992 nM and 378 nM and 401 nM | A (56-100% inhibition at 1 × 10^-5 M) | A (56-100% inhibition at 1 × 10^-5 M) | A | 56 to 100 | 56 to 100
CCn1nc(C)c2[nH]c(=O)n(C)c(=O)c21 [Example 6, 1-Ethyl-3,6-dimethyl-1H-pyrazolo-[4,3-d]pyrimidine-5,7-[4H,6H]dione] | A (56-100% inhibition at 1 × 10^-5 M) | 2530 nM | A (56-100% inhibition at 1 × 10^-5 M) | A (56-100% inhibition at 1 × 10^-5 M) | A | 56 to 100 | 36 to 55
Cc1nn(C)c2c(=O)n(C)c(=O)n(C)c12 [Example 7, 1,3,4,6-tetramethyl-1H-pyrazolo[4,3-d]pyrimidine-5,7-[4H,6H]dione] | C (21-35% inhibition at 1 × 10^-5 M) | – | C (21-35% inhibition at 1 × 10^-5 M) | N (0-20% inhibition at 1 × 10^-5 M) | A | 36 to 55 | 36 to 55
CCn1c(=O)c2c(c(C)nn2C)n(CC)c1=O [Example 8, 4,6-Diethyl-1,3-dimethyl-1H-pyrazolo[4,3-d]pyrimidine-5,7-[4H,6H]dione] | A (56-100% inhibition at 1 × 10^-5 M) | – | B (36-55% inhibition at 1 × 10^-5 M) | B (36-55% inhibition at 1 × 10^-5 M) | A | 56 to 100 | 56 to 100
CCCn1c(=O)c2c(c(C)nn2C)n(CCC)c1=O [Example 9, 1,3-dimethyl-4,6-dipropyl-1H-pyra-3-zolo[4,3-d]pyrimidine-5,7-[4H,6H]dione] | A (56-100% inhibition at 1 × 10^-5 M) | – | A (56-100% inhibition at 1 × 10^-5 M) | A (56-100% inhibition at 1 × 10^-5 M) | – | 56 to 100 | 56 to 100
